Laboratory results: patent US9827275B2, “Immunostimulatory compositions and methods of use thereof” (Comvita New Zealand Ltd., priority 2010, dated 2017)

Tests used:
[1] = tested on: primed macrophage cells; test: cytokine TNFα response of primed macrophage cells; format: cell-based; conditions: added alone to primed macrophage cells
Method: Macrophage cells were then matured to a point where they were primed and ready to respond to an input. Adding varying levels of LPS and measuring the cytokine TNFα response confirmed the maturity and readiness of the macrophage cells.
A variety of different honeys were then added to the primed macrophage cells and the cytokine response measured to determine if there were any trends. ethylglyoxal (MGO) was also added with or without honey to determine if this ingredient of manuka honey also influenced the immune stimulation effects. A sugar solution was also used to determine if this had any effect as well.
Honey samples (5% (w/v) and LPS (1000 ng/mL) were prepared in water and heated at 80° C. for 30 min in a shaking water bath. After heat processing, further dilutions were performed in RPMI medium and the resulting honey tested for cytokine response.

[2] = tested on: THP-1 cells; test: TNF-α release/production from THP-1 cell line; format: cell-based; conditions: FIG. 8, THP-1 cell line
Method: In this example the ability of three New Zealand honeys to elicit the release of TNF-α from the monocytic cell lines THP-1 and U937 were investigated and the bioactive component responsible identified.
In this example, the effect or otherwise of pure AGP was analysed to determine how AGP influences cytokine stimulation as exemplified by TNF-α production from THP-1 cell line.
Varying doses of LPS were tested against THP-1 cell line and the cytokine response measured. […] The results further reinforce the presence of type II AG compounds and their influence on inflammation.

## CC(=O)C=O [MGO, methylglyoxal]
[1]
  impact on immune stimulation (cytokine response): no impact
[2]
  pro-inflammatory response: no significant pro-inflammatory response
